{"source": "patent US20130011376A1", "about": "“Methods for Enhancing Natural Killer Cell Proliferation and Activity” (GAMIDA CELL LTD., priority 2009, published 2013)", "format_in_all_cases": "cell-based, human", "key": {"[1]": {"system": "T-cell depleted (CD3 or CD3/CD19 depleted) peripheral blood NK cell populations", "assay": "CD62L expression on T-cell depleted peripheral blood NK cell cultures (FACS)", "conditions": "2.5 and 5.0 mM nicotinamide, after 7, 14 and 21 days in culture", "procedure": "For depletion procedure, total nuclear cells from umbilical cord blood (CB), bone marrow (BM) or peripheral blood (PB) cells were layered on a Ficoll-Hypaque gradient (1.077 g/mL; Sigma), and centrifuged at 800×g for 30 minutes for separation of the mononuclear cells. The cells in the interface layer were collected and washed three times in phosphate-buffered saline (PBS) (Biological Industries, Israel) containing 0.5% HSA. Optionally, cells are not separated on the Ficoll-Hypaque gradient but washed three times in phosphate-buffered saline (PBS) (Biological Industries) containing 0.5% HSA (“total mononuclear fraction”). […] After negative depletion the cells were counted and characterized by FACS analysis.\n(§1) 3. […] To estimate number of cells in culture, cell samples were counted following staining with trypan blue. […]\nThe cells were washed with a PBS solution containing 1% BSA, and stained (at 4° C. for 30 min) with fluorescein isothiocyanate (FITC)- or phycoerythrin (PE)-conjugated antibodies or allophycocyanin (APC). The cells were then washed in the above buffer and analyzed using a FACScalibur® flow cytometer (Becton Dickinson, San Jose, Calif., USA). […] Emission of 10^4 cells was measured using logarithmic amplification, and analyzed using the CellQuest software (Becton Dickinson). […]"}, "[2]": {"system": "monocyte (CD14+) and granulocyte (CD15+) cells", "assay": "Contaminating monocytes and granulocytes in NK cell cultures (FACS)", "conditions": "14 days culture", "procedure": "For depletion procedure, total nuclear cells from umbilical cord blood (CB), bone marrow (BM) or peripheral blood (PB) cells were layered on a Ficoll-Hypaque gradient (1.077 g/mL; Sigma), and centrifuged at 800×g for 30 minutes for separation of the mononuclear cells. The cells in the interface layer were collected and washed three times in phosphate-buffered saline (PBS) (Biological Industries, Israel) containing 0.5% HSA. Optionally, cells are not separated on the Ficoll-Hypaque gradient but washed three times in phosphate-buffered saline (PBS) (Biological Industries) containing 0.5% HSA (“total mononuclear fraction”). CD3 cells were depleted using the CD3 cell isolation kit (Miltenyi Biotec Bergisch, Gladbach, Germany) and the entire CD3 negative cell fraction was cultured. […] After negative depletion the cells were counted and characterized by FACS analysis.\nas §1\nMethods for expansion of NK cells in culture, for use in the clinical setting, must be somewhat specific for the NK cell population, lest contaminating non-NK cells also proliferate due to cell culture conditions. The effect of nicotinamide on non-NK cells was evaluated by monitoring monocyte and granulocyte populations in NK cell cultures exposed to 2.5, 5 and 7.5 mM nicotinamide."}, "[3]": {"system": "peripheral blood CD56+ NK cells", "assay": "Proliferation of peripheral blood CD56+ NK cells co-cultured with irradiated feeder cells", "conditions": "2.5 mM and 5 mM nicotinamide, day 21, irradiated feeder cells 10:1", "from_the_text": "NK cell cells from total mononuclear cell fraction, purified CD56+ or CD56+CD3− cells from total nuclear or mononuclear cells or from the fraction depleted from CD34+ or CD133+ cells, or CD3+ depleted, or CD3+/CD19+ depleted mononuclear cell fraction from PB, BM and CB can be cultured with irradiated stroma. For the preparation of irradiated stroma (feeder cells), mononuclear cells were irradiated with 3000 rad. After CD56 or CD56+CD3− selection or CD3 depletion the cells were counted and characterized by FACS analysis as described hereinabove. Cells were cultured as described hereinabove, with and without nicotinamide, with and without irradiated stroma at a concentration of irradiated cells of 20×10^5 cells/ml.\nTo determine total number of cells on day 7, 14 and 21, the cell count/ml was multiplied by the volume of the culture medium. In order to determine the number of NK cells in culture, the total number of cells in culture was multiplied by the percent of CD56+/CD3− cells measured with the FACS on days 7, 14 or 21. To measure fold expansion, total number of NK cells on days 7, 14 and 21 was divided by total number of NK cells seeded in culture on day-0.\nPeripheral blood-derived mononuclear cell fractions were CD3 depleted and then selected for CD56+ cells by immunobead purification. […]"}}}
{"smiles": "NC(=O)c1cccnc1", "note": "[nicotinamide]", "values": [{"measurement": "CD62L-positive cells among the NK cells", "setting": "[1]", "result": "increased percentage"}, {"measurement": "suppression of CD14 proliferation", "setting": "[2]", "result": "greater than 50%"}, {"measurement": "suppression of granulocyte proliferation", "setting": "[2]", "result": "greater than 50%"}, {"measurement": "fold increase of NK cells relative to control (cytokines+irradiated mononuclear cells)", "setting": "[3]", "result": "at least 4 times"}]}
